This is an account of results in patent publication US20230073764A1, “COMPOSITION OF TANNIC ACID AND VITAMIN D AND METHODS OF USE” (Elastogenesis, LLC, priority 2021, published 2023).

For data set [1], the system named is human dermal fibroblasts. Kind of data set: Immunodetection of elastin in cultured human dermal fibroblasts. The format is cell-based. How it is done:
(§1) Biological effects of tannic acid in the presence of hyaluronic acid or ferulic acid were tested on dermal fibroblasts derived from punch biopsies of healthy skin. All fibroblasts were isolated by allowing migration out of skin explants and passaged by trypsinization. Fibroblasts were maintained in alpha-minimum essential medium supplemented with 20 mM HEPES, 1% antibiotics and antimycotics, 1% L-Glutamate and 2% fetal bovine serum (FBS). Cells were plated ([…] cells/dish) to reach confluency and were cultured for 7 days in the presence or absence of hyaluronic acid (0.1%), ferulic acid ([…]), tannic acid (2 μg/mL), or a combination thereof.
(§2) Cell cultures prepared according to Example 1 maintained in the presence or absence of tannic acid, hyaluronic acid, or ferulic acid were fixed in cold 100% methanol at […] for detection of elastin or in 4% paraformaldehyde at room temperature for detection of collagen I. The multiple parallel cultures were incubated with […] of polyclonal antibody to tropoelastin (Elastin Products, Owensville, Mich.), or polyclonal antibody to collagen type I (Chemicon, Temecula, Calif.). Cultures were incubated with the respective fluorescein-conjugated goat anti-rabbit, goat anti-mouse, or rabbit anti-goat secondary antibodies. Nuclei were counter stained with propidium iodide (Sigma, St. Louis, Mo.). All cultures were examined with a Nikon Eclipse E1000 microscope attached to a cooled CCD camera (QImaging, Retiga EX) and analyzed with the computer-generated morphometric analysis system, in which the Image-Pro Plus software (Media Cybernetics, Silver Springs, Md.) estimates the proportion of areas marked with green fluorescence, in relation to the entire (1 square mm) analyzed field.
Cultured human dermal fibroblasts were grown in the presence or absence of tannic acid at low concentration (2 μg/mL) and high concentration (20 μg/mL). Immunodetection of elastin was performed as described in Example 2.
(§3) Cultured human dermal fibroblasts were grown in the presence of or absence of vitamin D (10^−7 M), tannic acid ([…]), or a combination of vitamin D and tannic acid (2 μg/mL) (FIGS. 2A-2B and FIGS. 3A-3C). Immunodetection of elastin was performed as described above.
Cultured human dermal fibroblasts were grown in the presence of or absence hyaluronic acid (0.1%), tannic acid (2 μg/mL), or a combination of hyaluronic acid (0.1%) and tannic acid (2 μg/mL). Immunodetection of elastin was performed as described above.
Cultured human dermal fibroblasts were grown in the presence or absence of ferulic acid (5 μg/mL), tannic acid (2 μg/mL), or a combination of ferulic acid (5 μg/mL) and tannic acid (2 μg/mL). Immunodetection of elastin and collagen I was performed as described above. Results are shown in FIGS. 5A-5C, and FIGS. 6A-6B for elastin and FIGS. 7A-7C and FIG. 8 for collagen.
Cultured human dermal fibroblasts were grown in the presence or absence of ferulic acid (20 μM), tannic acid (2 μg/mL), or copper sulfate (2 μM). Fibroblasts were also grown in presence of a combination of ferulic acid (20 μM) and copper sulfate (2 μM), a combination of ferulic acid (20 μM) and tannic acid (2 μg/mL), and a combination of tannic acid (2 μg/mL) and copper sulfate (2 μM). Immunodetection of elastin was performed as described above.

Data set [2] relates to human dermal fibroblasts. The data set is described as follows: Immunodetection of collagen I in cultured human dermal fibroblasts. It counts as cell-based. To be noted: ferulic acid (5 μg/mL) alone. Here is the method: as §1
as §2, with “All cultures were examined with a Nikon Eclipse E1000 microscope attached to a cooled CCD camera (QImaging, Retiga EX) and analyzed with the computer-generated morphometric analysis system, in which the Image-Pro Plus software (Media Cybernetics, Silver Springs, Md.) estimates the proportion of areas marked with green fluorescence, in relation to the entire (1 square mm) analyzed field.” left out

The next data set concerns fibroblast cultures. Kind of data set: Tropoelastin in fibroblast cultures measured using PCR. The format is cell-based, human. To be noted: PCR after 18 hours; tannic acid added to cultures that contained vitamin D3. Here is the method:
FIG. 2A depicts the amount of tropoelastin in fibroblast cultures measured using PCR after 18 hours.
as §3

The conditions of data set [3]: cited from earlier work.
Setting [4] is: tannic acid (2 μg/mL) added to hyaluronic acid (0.1%).
Where [5] appears, read: tannic acid (2 μg/mL) added to vitamin D (10^−7 M).

In the case of `O=S(=O)([O-])[O-].[Cu+2]` [copper sulfate, reference compound], in the data set with human dermal fibroblasts [1] (copper sulfate (2 μM)), the effect on elastin result is “little effect on elastin”.

For the molecule `COc1cc(/C=C/C(=O)O)ccc1O` [ferulic acid], in the data set with human dermal fibroblasts [1] (ferulic acid (5 μg/mL) alone), the concentrations of elastin result is “negative effect on concentrations of elastin”. Further, the effect on elastin result in the data set with human dermal fibroblasts [1] (ferulic acid (20 μM)) is listed as “leads to a reduction in elastin”. For the same molecule, the concentrations of collagen entry in the data set with human dermal fibroblasts [2] is reported as “minimal effect on concentrations of collagen”.

Take `O=C(OC[C@H]1O[C@@H](OC(=O)c2cc(O)c(O)c(OC(=O)c3cc(O)c(O)c(O)c3)c2)[C@H](OC(=O)c2cc(O)c(O)c(OC(=O)c3cc(O)c(O)c(O)c3)c2)[C@@H](OC(=O)c2cc(O)c(O)c(OC(=O)c3cc(O)c(O)c(O)c3)c2)[C@@H]1OC(=O)c1cc(O)c(O)c(OC(=O)c2cc(O)c(O)c(O)c2)c1)c1cc(O)c(O)c(OC(=O)c2cc(O)c(O)c(O)c2)c1` [tannic acid]: the production of elastin entry in the data set with human dermal fibroblasts [1] (tannic acid (2 μg/mL) added to ferulic acid (5 μg/mL)) is given as “improved production of elastin even in the presence of ferulic acid”. In addition, the elastin fiber formation entry with human dermal fibroblasts [1] (setting [4]) is recorded as “abolished the inhibitory effect of hyaluronic acid on elastin fiber formation”; in the data set with human dermal fibroblasts [1] (setting [5]), “abolished the inhibitory effect of vitamin D on elastin fiber formation”. The “net deposition of elastin” value in the data set on human dermal fibroblasts [1] (setting [4]) and in the data set with human dermal fibroblasts [1] (setting [5]) was “caused an improvement in net deposition of elastin” each time. In addition, the elastin concentration result in the data set on human dermal fibroblasts [1] (tannic acid at high concentration (20 μg/mL)) is on record as “caused elastosis”; in the data set on human dermal fibroblasts [1] (tannic acid at low concentration (2 μg/mL), compared to high concentration), “improved elastin concentration”. The amount of tropoelastin result in the data set with fibroblast cultures is listed as “increased the amount of tropoelastin”. Moreover, the pKa entry in data set [3] is “about 6”.

With hyaluronic acid, in the data set on human dermal fibroblasts [1] (hyaluronic acid (0.1%) alone), the elastin production entry is “causes inhibition of elastin production”.

In the case of vitamin D [reference compound], in the data set with human dermal fibroblasts [1] (vitamin D (10^−7 M) alone), the elastin production result was “causes inhibition of elastin production”.
